Literature values as cited in patent US8648085B2, “1, 5-dihydro-pyrazolo (3, 4-D) pyrimidin-4-one derivatives and their use as PDE9A mudulators for the treatment of CNS disorders” (Boehringer Ingelheim International GmbH, priority 2007, dated 2014).

How the values were obtained:
PDE9A = PDE9A (Homo sapiens, UniProt O76083); conditions: concentrations of up to 100 [mu]M; cited from earlier work
Murine PDE9A = target: T1, Murine PDE9A (Mus musculus, UniProt O70628); conditions: concentrations below 200 [mu]M; cited from earlier work
T1 sequence (O70628 1-534): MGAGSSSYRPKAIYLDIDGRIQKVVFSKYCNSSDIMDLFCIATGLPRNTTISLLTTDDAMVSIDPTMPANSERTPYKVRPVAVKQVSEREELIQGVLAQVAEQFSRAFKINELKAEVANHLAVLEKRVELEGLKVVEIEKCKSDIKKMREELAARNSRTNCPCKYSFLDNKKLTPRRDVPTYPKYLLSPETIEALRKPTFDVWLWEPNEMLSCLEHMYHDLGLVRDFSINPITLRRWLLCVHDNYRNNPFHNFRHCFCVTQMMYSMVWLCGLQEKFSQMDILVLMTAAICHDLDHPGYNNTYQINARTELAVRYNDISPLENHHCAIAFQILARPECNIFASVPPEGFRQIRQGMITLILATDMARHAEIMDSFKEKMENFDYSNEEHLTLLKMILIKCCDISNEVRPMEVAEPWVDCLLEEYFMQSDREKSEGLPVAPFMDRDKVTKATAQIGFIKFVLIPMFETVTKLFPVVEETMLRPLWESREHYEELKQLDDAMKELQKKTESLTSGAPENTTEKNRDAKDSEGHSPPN

Chain of PDE9A (O76083 whole entry): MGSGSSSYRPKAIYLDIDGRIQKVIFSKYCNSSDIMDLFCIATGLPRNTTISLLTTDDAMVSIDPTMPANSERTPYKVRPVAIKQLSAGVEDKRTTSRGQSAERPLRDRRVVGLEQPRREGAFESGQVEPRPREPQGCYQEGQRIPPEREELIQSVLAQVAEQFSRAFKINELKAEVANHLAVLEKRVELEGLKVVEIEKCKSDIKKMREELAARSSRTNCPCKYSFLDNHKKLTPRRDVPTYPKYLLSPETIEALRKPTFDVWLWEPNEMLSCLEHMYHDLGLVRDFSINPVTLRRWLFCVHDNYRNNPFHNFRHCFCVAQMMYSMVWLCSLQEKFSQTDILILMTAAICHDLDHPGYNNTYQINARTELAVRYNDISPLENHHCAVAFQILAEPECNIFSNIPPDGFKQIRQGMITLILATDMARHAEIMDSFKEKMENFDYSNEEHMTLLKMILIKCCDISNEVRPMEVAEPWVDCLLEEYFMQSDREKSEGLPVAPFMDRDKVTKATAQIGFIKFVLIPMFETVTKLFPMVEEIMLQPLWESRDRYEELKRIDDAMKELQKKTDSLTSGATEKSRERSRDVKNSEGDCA

Structure (SMILES): CC(C)Cn1c(=O)n(C)c(=O)c2[nH]cnc21 [IBMX]
- inhibition on the isolated enzyme (human PDE9A) (PDE9A): no inhibition
- inhibition of murine PDE9A (Murine PDE9A): not inhibited
